In paper PMC4579270, “Identification and Characterization of an Irreversible Inhibitor of CDK2” (Chemistry & Biology, 2015):
Where two headings read alike, the source gives them in different places.

What was measured:
Test in all cases: Dundee kinase screen re-test (standard format and 4 hour pre-incubation)
Format in all cases: biochemical
[1] = target: GSK3b (Homo sapiens, UniProt P49841)
Outline: (§1)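 Selectivity panel of 131 protein kinases, inhibitor tested at a single concentration of 1 µM; values are % kinase activity remaining, mean of duplicates. Re-test of selected kinases used 0.5 µM in the standard format and again after a 4 hour pre-incubation with the inhibitor.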

[2] = target: JNK3 (Homo sapiens, UniProt P53779); details: JNK3, 0.5µM
Sequence of JNK3 (P53779 whole entry): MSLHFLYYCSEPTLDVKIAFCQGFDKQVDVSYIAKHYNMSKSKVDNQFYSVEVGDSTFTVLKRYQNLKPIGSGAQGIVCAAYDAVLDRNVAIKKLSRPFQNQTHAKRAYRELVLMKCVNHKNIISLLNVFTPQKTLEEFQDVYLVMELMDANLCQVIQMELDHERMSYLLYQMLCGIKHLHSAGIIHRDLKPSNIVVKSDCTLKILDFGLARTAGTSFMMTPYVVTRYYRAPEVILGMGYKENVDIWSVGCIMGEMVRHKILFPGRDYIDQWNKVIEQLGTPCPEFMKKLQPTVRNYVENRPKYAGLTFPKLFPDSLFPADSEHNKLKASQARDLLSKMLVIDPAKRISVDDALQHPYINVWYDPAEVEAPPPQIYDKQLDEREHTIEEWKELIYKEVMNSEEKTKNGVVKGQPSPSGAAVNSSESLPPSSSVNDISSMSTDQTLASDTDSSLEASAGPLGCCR
Outline: as §1

[3] = target: T1, MARK4 (Homo sapiens, UniProt Q96L34); details: MARK4, 0.5µM
T1 sequence (Q96L34 1-752): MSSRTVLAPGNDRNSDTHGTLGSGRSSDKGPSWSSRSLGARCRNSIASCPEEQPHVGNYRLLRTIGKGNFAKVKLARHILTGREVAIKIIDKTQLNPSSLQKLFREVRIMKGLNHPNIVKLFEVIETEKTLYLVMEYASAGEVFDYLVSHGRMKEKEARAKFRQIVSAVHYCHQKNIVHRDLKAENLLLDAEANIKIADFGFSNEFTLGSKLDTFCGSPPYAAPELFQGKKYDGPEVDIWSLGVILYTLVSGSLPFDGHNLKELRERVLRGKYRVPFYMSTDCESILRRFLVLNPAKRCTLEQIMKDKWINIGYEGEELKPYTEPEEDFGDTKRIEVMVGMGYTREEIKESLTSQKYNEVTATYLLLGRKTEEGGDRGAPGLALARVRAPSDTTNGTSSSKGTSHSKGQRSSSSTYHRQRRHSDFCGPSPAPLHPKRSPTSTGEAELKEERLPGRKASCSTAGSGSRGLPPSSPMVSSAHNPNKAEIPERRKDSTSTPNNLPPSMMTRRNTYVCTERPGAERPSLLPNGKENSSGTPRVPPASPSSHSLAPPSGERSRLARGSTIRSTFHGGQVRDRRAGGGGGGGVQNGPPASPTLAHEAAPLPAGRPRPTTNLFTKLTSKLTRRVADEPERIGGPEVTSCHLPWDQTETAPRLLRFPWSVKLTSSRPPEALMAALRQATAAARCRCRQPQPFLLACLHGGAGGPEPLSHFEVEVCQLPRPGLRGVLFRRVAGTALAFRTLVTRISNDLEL
Outline: as §1

[4] = target: T2, TAO1 (Homo sapiens, UniProt Q7L7X3); details: TAO1, 0.5µM
T2 sequence (Q7L7X3 1-1001): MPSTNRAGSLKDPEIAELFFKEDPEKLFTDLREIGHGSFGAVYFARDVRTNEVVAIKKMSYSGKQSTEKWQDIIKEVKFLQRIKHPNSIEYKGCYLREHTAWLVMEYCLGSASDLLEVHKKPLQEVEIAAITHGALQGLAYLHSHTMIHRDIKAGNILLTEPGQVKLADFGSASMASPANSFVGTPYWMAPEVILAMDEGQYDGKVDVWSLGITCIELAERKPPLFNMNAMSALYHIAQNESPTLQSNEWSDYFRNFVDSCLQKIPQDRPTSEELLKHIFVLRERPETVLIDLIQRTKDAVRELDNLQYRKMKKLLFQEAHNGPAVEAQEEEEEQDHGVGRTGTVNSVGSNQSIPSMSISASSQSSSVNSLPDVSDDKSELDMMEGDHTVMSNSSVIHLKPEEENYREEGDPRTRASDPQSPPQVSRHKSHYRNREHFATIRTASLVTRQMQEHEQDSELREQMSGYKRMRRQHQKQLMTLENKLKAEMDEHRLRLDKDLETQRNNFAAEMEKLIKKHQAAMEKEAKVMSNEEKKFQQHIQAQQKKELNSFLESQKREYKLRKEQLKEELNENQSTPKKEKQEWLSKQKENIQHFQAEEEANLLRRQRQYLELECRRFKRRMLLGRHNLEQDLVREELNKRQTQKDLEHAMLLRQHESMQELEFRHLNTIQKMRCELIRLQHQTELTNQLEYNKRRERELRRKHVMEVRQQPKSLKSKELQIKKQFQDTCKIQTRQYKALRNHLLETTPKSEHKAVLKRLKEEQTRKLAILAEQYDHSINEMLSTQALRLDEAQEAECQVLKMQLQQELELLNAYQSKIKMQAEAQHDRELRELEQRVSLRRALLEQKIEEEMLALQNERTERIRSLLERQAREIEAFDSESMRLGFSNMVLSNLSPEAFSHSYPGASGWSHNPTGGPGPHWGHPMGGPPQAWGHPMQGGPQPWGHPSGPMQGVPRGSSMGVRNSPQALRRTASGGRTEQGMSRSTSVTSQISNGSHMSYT
Outline: as §1

[5] = target: T3, TSSK1 (Homo sapiens, UniProt Q9BXA7); details: TSSK1, 0.5µM
T3 sequence (Q9BXA7 1-367): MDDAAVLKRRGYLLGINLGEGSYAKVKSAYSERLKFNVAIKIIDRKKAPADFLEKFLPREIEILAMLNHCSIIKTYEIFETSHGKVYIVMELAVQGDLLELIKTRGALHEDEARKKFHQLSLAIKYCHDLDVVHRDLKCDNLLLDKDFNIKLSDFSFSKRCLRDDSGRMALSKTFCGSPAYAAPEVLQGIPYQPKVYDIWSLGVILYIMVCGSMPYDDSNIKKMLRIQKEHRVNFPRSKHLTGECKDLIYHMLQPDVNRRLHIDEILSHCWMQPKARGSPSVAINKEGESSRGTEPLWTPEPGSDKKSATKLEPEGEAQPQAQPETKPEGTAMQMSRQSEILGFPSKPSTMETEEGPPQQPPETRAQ
Outline: as §1

[6] = 4hr RT preincubation, read-out: %Remaining activity at 0.5µM NU6300 - 4hr RT preincubation
[7] = usual format, read-out: %Remaining activity at 0.5µM NU6300 - Usual assay format

Sequence of GSK3b (P49841 whole entry): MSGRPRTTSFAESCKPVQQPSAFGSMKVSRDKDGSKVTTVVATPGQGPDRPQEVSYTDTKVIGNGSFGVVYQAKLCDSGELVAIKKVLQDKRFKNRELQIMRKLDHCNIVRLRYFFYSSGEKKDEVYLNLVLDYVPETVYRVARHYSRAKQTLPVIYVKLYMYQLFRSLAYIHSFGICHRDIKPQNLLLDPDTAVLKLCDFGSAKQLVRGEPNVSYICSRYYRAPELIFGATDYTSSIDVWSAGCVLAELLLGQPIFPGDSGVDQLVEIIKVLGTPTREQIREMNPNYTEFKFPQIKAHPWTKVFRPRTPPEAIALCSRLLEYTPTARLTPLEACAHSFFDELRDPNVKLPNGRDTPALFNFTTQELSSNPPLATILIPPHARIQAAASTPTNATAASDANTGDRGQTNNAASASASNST

C=CS(=O)(=O)c1ccc(Nc2nc(OCC3CCCCC3)c3nc[nH]c3n2)cc1 [NU6300, 6-(cyclohexylmethoxy)-N-(4-(vinylsulfonyl)phenyl)-9H-purin-2-amine]
remaining activity at 0.5 µM [1, 6]: 81%
remaining activity at 0.5 µM [1, 7]: 80%
remaining activity at 0.5 µM [2, 6]: 98%
remaining activity at 0.5 µM [2, 7]: 53%
remaining activity at 0.5 µM [3, 6]: 52%
remaining activity at 0.5 µM [3, 7]: 47%
remaining activity at 0.5 µM [4, 6]: 20%
remaining activity at 0.5 µM [4, 7]: 27%
remaining activity at 0.5 µM [5, 6]: 67%
remaining activity at 0.5 µM [5, 7]: 53%
